Experimental data: patent publication US10111431B2, “Application of biofilm formation inhibiting compounds enhances control of citrus canker” (priority 2013, dated 2018)

How the values were obtained:
[1] = system: X. citri subsp. citri on citrus fruit; assay: Detached immature grapefruit fruit spray inoculation; type: in vivo, Xanthomonas citri subsp. citri; conditions: for decrease in CFU per square centimeter of fruit tissue compared with untreated control / canker symptom development on fruit surface (lesion numbers): D-leucine 10 mM, IAN 100 μg/ml; for canker symptom development on fruit surface (lesion numbers): applied along with pathogen, preliminary study; for log reduction in the number of CFU per square centimeter: fruit, 11 days after inoculation
[2] = system: biofilm formation and copper resistance related genes in Xac 306; assay: qRT-PCR differential gene expression; type: cell-based, Xanthomonas citri subsp. citri; conditions: for expression of genes important for biofilm formation (qRT-PCR): IAN 100 μg/mL or D-leucine 10 mM, NB, 48 h, 15 genes, gyrA control; for expression of galU, gumB, gumD, copA and copB in planktonic or biofilm cells: in the presence of CuSO4, data not shown
Procedure: To investigate the mechanisms of D-leucine and IAN inhibiting Xac 306 biofilm formation, qRT-PCR analysis was used to determine differential gene expression for Xac306 cells with and without IAN (100 μg/mL) or D-leucine (10 mM). For this analysis, Xac306 was cultured in NB medium with or without biofilm inhibitor at 28° C. without shaking. Cells were collected after 48 h of incubation by centrifugation at 12,000×g for 5 min at 4° C. and used for RNA extraction. For the analysis of gene expression in Xac 306 planktonic and biofilm cells with sub-MICs CuSO4 concentrations, we followed the same procedure described for evaluation of resistance of Xac biofilm cells to copper in glass tubes. Both biofilm cells attached to the glass tube at the medium-air interface and planktonic cells in culture were used. Cells collected after 48 h of incubation in the presence of CuSO4 were washed by centrifugation at 12,000×g for 5 min at 4° C. with diethylpyrocarbonate treated water. Cells collected from five tubes were combined and served as one biological replicate. The pellet was stored at −80° C. until RNA extraction. Total RNA of Xac306 cells was isolated using RNA protect bacterial reagent (Qiagen, Valencia, Calif.) and RNeasy Mini Kit (Qiagen, Valencia, Calif.), following the manufacturer's instructions. The contaminated genomic DNA was removed using a TURBO DNA-free kit (Ambion, Austin, Tex.). RNA purity and quality were evaluated with a NanoDrop ND-1000 spectrophotometer (NanoDrop Technologies, Wilmington, Del.).
A one-step QRT-PCR was conducted using a 7500 fast real-time PCR system (Applied Biosystems, Foster City, Calif.) with a QuantiTect SYBR green RT-PCR kit (Qiagen, Valencia, Calif.) following the manufacturer's instructions. The gene specific primers (Table 1) were designed based on the genome sequence of Xac strain 306 (da Silver et al., 2002). In the biofilm inhibition mechanism studies, those primers targeted fifteen genes that were previously identified to be related bioflim formation in Xac strain 306 (Li and Wang, 2011). In the copper resistance analysis, those primers targeted the gum genes gumB and gumD polysaccharides—related gene galU, and copper resistance-related genes copA and copB (Teixeira et al., 2008; Behlau et al., 2012). The DNA gyrase subunit A encoding gene gyrA was used as endogenous control. The relative fold change in gene expression was calculated using the formula 2^−ΔΔCT (Livak and Schmittgen, 2001). qRT-PCR was repeated twice with four independent biological replicates each time.

[3] = system: Xac 306 on grapefruit leaves; assay: Plant test in greenhouse, spray inoculation of grapefruit leaves; type: in vivo, Xanthomonas citri subsp. citri; conditions: for level of canker lesions on sprayed leaves / canker symptom development on grapefruit leaves (lesion numbers): D-leucine 10 mM, IAN 100 μg/mL; for level of canker lesions on sprayed leaves: CuSO4 100 μg/mL; for canker symptom development on grapefruit leaves: applied after (6 h) the pathogen inoculation; for canker symptom development on grapefruit leaves (lesion numbers): applied along with or prior to (6 h) pathogen inoculation; for log reduction in the number of CFU compared to untreated control: grapefruit leaves, 7 to 28 days after inoculation
Procedure: The effect of selected biofilm inhibitors on Xac infection/virulence-was investigated using 20-week-old potted grapefruit (Citrus paradise cv. Duncan grapefruit) plants in a quarantine greenhouse at the Citrus Research and Education Center, Lake Alfred, Fla. Copper (CuSO4, 100 μg/mL), D-leucine (10 mM), IAN (100 μg/mL) and a combination of these compounds were individually prepared in 100 ml of SDW. Bacterial inoculum was prepared by growing Xac 306 on NA plates at 28° C. for 48 h, suspending in SDW, adjusting concentration to approximately OD600=0.3 (5×10^8 CFU/mL). The inoculation was performed by a spray method as described previously (Li and Wang, 2012) with modifications. Briefly, the abaxial surfaces of fully expanded, immature leaves of each plant were sprayed with the following treatments: SDW, Xac 306, and Xac 306 combined with CuSO4 (100 μg/mL), D-leucine (10 mM), IAN (100 μg/mL), or a combination of these compounds. Silwett-L77 (silicone-polyether copolymer, Fisher) was added to each treatment at a 0.03% (V/V) final concentration. After inoculation, the plants were covered with plastic bags for 24 h to maintain a high (>90%) relative humidity and then kept in a greenhouse (approximately 60% relative humidity) for symptom development. All inoculations included a minimum of three immature leaves at a similar developmental stage from each plant, and each treatment comprised four plants. The experiments were repeated three times independently. SDW was applied as a negative control, and Xac306 mixed with SDW as positive control. To determine whether the timing of application of biofilm inhibitors in relation to Xac306 affected canker symptom suppression, the biofilm inhibitors were inoculated on leaves 6 h prior to or after inoculation with Xac306.
For bacterial population assays, the leaves of grapefruit plants were inoculated as described above. Two leaf discs randomly selected from each of three inoculated leaves were cut with a cork borer (0.8 cm in diameter) and then ground in 1 mL of SDW. The suspensions were serially diluted and plated on NA plates containing rifamycin. After incubation at 28° C. for 48 h, bacterial colonies were counted and the number of CFU per square centimeter of leaf tissue was calculated. The assays were repeated three times independently.

[4] = system: Xac306 biofilm formation; assay: Static biofilm formation assay in 96-well polystyrene plates with crystal violet staining; type: cell-based, Xanthomonas citri subsp. citri; conditions: for dose dependence of Xac306 biofilm decrease: 0 to 20 mM for D-leucine and D-serine, 0 to 150 μg/mL for IAN; for decrease in biofilm mass: 10 mM for D-leucine and 100 μg/mL for IAN (below MIC); for effect on planktonic cell density: sub-MIC: 10 mM D-leucine, 100 μg/mL IAN, data not shown
Procedure: A static biofilm formation assay in 96-well polystyrene plates coupled with CV staining was performed as previously reported with modifications (Li and Wang, 2011). Briefly, a 96-well polystyrene plate (Nunclon surface, Nuncbrand, Denmark) was prepared with 170 μL NB plus 1.0% glucose per well. Aliquots of 20 μL each of the different concentrations of the tested compound were pipetted into eight wells containing 170 μL of NB plus 1.0% glucose. To each of these wells was added 10 μL of the standardized overnight Xac 306 culture (OD600=1.0). Control wells contained NB plus 1.0% glucose and SDW or 0.1% DMSO as a sterility control, or standardized overnight Xac 306 culture as a growth control. The plate was covered by a MicroWell lid (Nunclon), sealed with parafilm to prevent evaporation and incubated at 28° C. for 48 h without shaking. After incubation, the planktonic growth was measured at OD600. To quantify the amount of biofilms formed on the surfaces of the wells, the culture was removed from the wells. After drying, the wells were washed twice with 200 μl of SDW for 5 min, allowed to dry then 200 μl of 0.1% CV added. After 30 minutes, the CV was removed. The wells were washed with excess SDW to remove unbound CV and air dried in an inverted position for 2 h. Afterward, 200 μl of 95% ethanol was added to the wells and incubated for 30 min at room temperature to elute bound CV. The eluted CV was 2-fold diluted in double distilled water and the absorbance at 590 nm was measured. Each data point was averaged from eight replicate wells.

| SMILES | decrease in CFU per square centimeter of fruit tissue compared with untreated control [1] | canker symptom development on fruit surface (lesion numbers) [1] | log reduction in the number of CFU per square centimeter [1] [log] | expression of genes important for biofilm formation (qRT-PCR) [2] | expression of galU, gumB, gumD, copA and copB in planktonic or biofilm cells [2] | level of canker lesions on sprayed leaves [3] | canker symptom development on grapefruit leaves [3] | canker symptom development on grapefruit leaves (lesion numbers) [3] | log reduction in the number of CFU compared to untreated control [3] [log] | dose dependence of Xac306 biofilm decrease [4] | decrease in biofilm mass [4] [%] | effect on planktonic cell density [4] |
| --- | --- | --- | --- | --- | --- | --- | --- | --- | --- | --- | --- | --- |
| CC(C)C[C@@H](N)C(=O)O [D-leucine] | approximately 50 fold | able to reduce canker symptom development | ~1.6 | no induction or repression of any of the tested genes | did not affect express of any of the gene tested | less than that sprayed with the pathogen alone | did not affect the development of canker symptoms | able to reduce canker symptom development | ~1.0 | decreased Xac306 biofilm in a dose-dependent manner | 58 | does not significantly decrease planktonic cell density |
| N#CCc1c[nH]c2ccccc12 [IAN, 3-indolylacetonitrile] | approximately 50 fold | able to reduce canker symptom development | ~1.8 | repression of chemotaxis and motility genes cheY, motB and pilB | did not affect express of any of the gene tested | less than that sprayed with the pathogen alone | did not affect the development of canker symptoms | able to reduce canker symptom development | ~1.0 | decreased Xac306 biofilm in a dose-dependent manner | 65 | does not significantly decrease planktonic cell density |
